Read-outs that look alike come from different tables or passages of the source.
What was measured:
[1] = biological target: T1, CETP activity in the serum (Homo sapiens, UniProt P11597); assay: Measurement of the ex vivo activities on transgenic hCETP mice; format: in vivo; conditions: mouse, serum cholesteryl ester transport; for inhibition at 30 mg/kg: 30 mg/kg oral; for inhibition at 100 mg/kg: 100 mg/kg oral
T1 construct: from tissue; host or cells: serum of transgenic hCETP mice
T1 sequence (P11597 18-493): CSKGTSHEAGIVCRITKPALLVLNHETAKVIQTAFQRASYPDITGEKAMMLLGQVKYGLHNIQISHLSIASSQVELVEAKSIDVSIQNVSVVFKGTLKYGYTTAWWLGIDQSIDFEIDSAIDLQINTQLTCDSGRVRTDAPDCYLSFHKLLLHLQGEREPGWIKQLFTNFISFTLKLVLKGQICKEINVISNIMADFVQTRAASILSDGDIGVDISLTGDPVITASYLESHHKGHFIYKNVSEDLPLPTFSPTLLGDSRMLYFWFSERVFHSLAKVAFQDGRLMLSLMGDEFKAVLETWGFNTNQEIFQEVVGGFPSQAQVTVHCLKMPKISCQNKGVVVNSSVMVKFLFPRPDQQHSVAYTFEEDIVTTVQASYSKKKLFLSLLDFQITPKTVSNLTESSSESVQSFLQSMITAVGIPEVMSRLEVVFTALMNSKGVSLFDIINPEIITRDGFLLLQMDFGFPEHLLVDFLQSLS
Method: To test for CETP-inhibitory activity, the substances are administered orally using a stomach tube to transgenic hCETP mice bred in-house (Dinchuk et al. BBA (1995) 1295-301). To this end, male animals are randomly assigned to groups having an equal number of animals, as a rule n=3, one day before the start of the experiment. Before administration of the substance, blood is taken from each mouse by puncture of the retro-orbital venous plexus for the determination of its basal CETP activity in the serum (T1). The test substance is then administered to the animals using the stomach tube. At specific times after administration of the test substance, blood is taken from the animals by puncture a second time (T2), as a rule 0.5, or 1 and 2 h after substance administration, but if appropriate this can also be carried out at another time.
In order to be able to assess the inhibitory activity of a substance, for each time, i.e. 0.5 or 1 or 2 h, a corresponding control group is employed whose animals only receive the formulating agent without substance. In the control animals, the second blood sampling per animal is carried out as in the substance-treated animals in order to be able to determine the change in the CETP activity without inhibitor over the corresponding experimental time interval (0.5, 1 or 2 h).
After termination of the clotting, the blood samples are centrifuged and the serum is removed by pipette.
For the determination of the CETP activity, the cholesteryl ester transport over 4 h is determined. To this end, as a rule 2 μl of serum are employed in the test batch and the test is carried out as described under “CETP fluorescence test”.
The differences in the cholesteryl ester transport [pM CE*/h (T2)−pM CE*/h (T1)] are calculated for each animal and averaged in the groups. A substance which at one of the times reduces the cholesteryl ester transport by >30% is regarded as active.

CETP = biological target: T2, CETP (Homo sapiens, UniProt P11597); assay: CETP fluorescence test; format: biochemical; conditions: CETP from human plasma, transfer of fluorescent cholesterol ester between liposomes, 37° C., 4 hours; read-out: IC50 [nM] Fluor. test
T2 construct: enriched CETP fraction, obtained from human plasma by means of hydrophobic chromatography; from tissue; host or cells: human plasma
T2 sequence (P11597 18-493): T1 sequence (P11597 18-493)
Method: CETP is obtained in partially purified form from human plasma by differential centrifugation and column chromatography and used for the test. To this end, human plasma is adjusted to a density of 1.21 g per ml using NaBr and centrifuged at 4° C. at 50 000 rpm for 18 h. The bottom fraction (d>1.21 g/ml) is applied to a Sephadex® Phenyl-Sepharose 4B (Pharmacia) column, washed with 0.15 M NaCl/0.001 M tris HCl pH 7.4 and then eluted with distilled water. The CETP-active fractions are pooled, dialysed against 50 mM sodium acetate pH 4.5 and applied to a CM-Sepharose® column (Pharmacia). The mixture is then eluted using a linear gradient (0-1 M NaCl). The pooled CETP fractions are dialysed against 10 mM Tris HCl pH 7.4 and then further purified by chromatography on a Mono Q® column (Pharmacia).
Measurement of the CETP-catalysed transfer of a fluorescent cholesterol ester between liposomes—modified according to the procedure of Bisgaier et al., J. Lipid Res. 34, 1625 (1993):
For the production of the donor liposomes, 1 mg of cholesteryl 4,4-difluoro-5,7-dimethyl-4-bora-3a,4a-diaza-s-indacene-3-dodecanoate (cholesteryl BODIPY® FL C12, Molecular Probes) is dissolved in 600 μl of dioxane with 5.35 mg of triolein and 6.67 mg of phosphatidylcholine with gentle warming in an ultrasonic bath and this solution is added very slowly with ultrasonication to 63 ml of 50 mM tris/HCl, 150 mM NaCl, 2 mM EDTA buffer pH 7.3 at RT.
The suspension is then ultrasonicated under an N2 atmosphere for 30 minutes in the Braukson ultrasonic bath at about 50 watts, the temperature being kept at about 20° C.
The acceptor liposomes are obtained analogously from 86 mg of cholesteryl oleate, 20 mg of triolein and 100 mg of phosphatidylcholine dissolved in 1.2 ml of dioxane and 114 ml of above buffer by ultrasonication at 50 watts (20° C.) for 30 minutes.
For testing, a test mix consisting of 1 part of above buffer, 1 part of donor liposomes and 2 parts of acceptor liposomes is used.
80 μl of test mix are treated with 1-3 μg of enriched CETP fraction, obtained from human plasma by means of hydrophobic chromatography, and 2 μl of the substance to be investigated in DMSO and incubated at 37° C. for 4 hours.
The change in the fluorescence at 485/535 nm is a measure of the CE transfer; the inhibition of the transfer in comparison to the control batch without substance is determined.

HDL = assay: Measurement of the in vivo activity in transgenic hCETP mice; conditions: stomach tube
Method: In experiments for the determination of the oral action on lipoproteins and triglycerides, test substance is administered to transgenic mice [Dinchuck et al., BBA, 1295-301 (1995)] using a stomach tube. Before the start of the experiment, blood is taken from the mice retro-orbitally in order to determine cholesterol and triglycerides in the serum. The serum is obtained as described above for hamsters by incubation at 4° C. overnight and subsequent centrifugation at 6000×g. […] The change in the parameters measured are expressed as the percentage change compared with the starting value.

HDL cholesterol = assay: Measurement of the in vivo activity in Syrian golden hamsters; conditions: peroral
Method: In experiments for the determination of the oral action on lipoproteins and triglycerides, test substance dissolved in DMSO and 0.5% suspended in Tylose are administered perorally by means of a stomach tube to Syrian golden hamsters bred in-house. For the determination of the CETP activity, before the start of the experiment blood is taken by retro-orbital puncture (about 250 μl). The test substances are then administered perorally by means of a stomach tube. The control animals receive identical volumes of solvent without test substance. […]
Clotting is terminated by incubation of 4° C. overnight, then centrifugation is carried out for 10 minutes at 6000×g. The content of cholesterol and triglycerides in the serum thus obtained is determined with the aid of modified commercially obtainable enzymatic tests (Ecolin 25 Cholesterol, 1.14830.0001 Merck Diagnostica; Ecoline 25 Triglycerides, 1.14856.0001 Merck Diagnostica). […]
10 μl of serum dilution are treated with 200 μl of Ecoline 25 reagent in 96-hole plates and incubated for 10 minutes at room temperature. The optical density is then determined at a wavelength of 490 nm using an automatic plate reader. The triglyceride or cholesterol concentration contained in the samples is determined with the aid of a standard curve measured in parallel. […]

[2] = 0.5 h after administration, read-out: % inhibition at 30 mg/kg 0.5 h
[3] = 1 h after administration, read-out: % inhibition at 30 mg/kg 1 h
[4] = 2 h after administration, read-out: % inhibition at 30 mg/kg 2 h
[5] = 0.5 h after administration, read-out: % inhibition at 100 mg/kg 0.5 h
[6] = 1 h after administration, read-out: % inhibition at 100 mg/kg 1 h
[7] = 2 h after administration, read-out: % inhibition at 100 mg/kg 2 h
[8] = 3 h after administration, read-out: % inhibition at 30 mg/kg 3 h
[9] = 6 h after administration, read-out: % inhibition at 30 mg/kg 6 h

inhibition at 30 mg/kg [1, 2] [%]	inhibition at 30 mg/kg [1, 3] [%]	inhibition at 30 mg/kg [1, 4] [%]	IC50 (CETP) [nM]	inhibition at 30 mg/kg [1, 8] [%]	inhibition at 30 mg/kg [1, 9] [%]	Compound	inhibition at 100 mg/kg [1, 5] [%]	inhibition at 100 mg/kg [1, 6] [%]	inhibition at 100 mg/kg [1, 7] [%]	% increase of HDL after 4 d (dose: 4 × 30 mg/kg) (HDL) [%]	% increase of HDL after 24 h (dose: 2 × 30 mg/kg) (HDL cholesterol) [%]
70	71	63	70	–	–	COc1c([C@@H](O)CC(C)C)ccc2c1C(=O)OCc1c(Cl)c(C)c(Br)c(OC(=O)C3(C)CC4CCC3C4)c1O2 (stereo partly shown) [Example B-45]	–	–	–	–	–
–	–	–	250	–	–	COc1c([C@@H](O)CC(C)C)ccc2c1C(=O)OCc1cc(C)cc(OC(=O)CC(C)(C)C)c1O2 [Example A-23]	59	52	31	–	–
52	55	27	100	–	–	COc1c([C@@H](O)CC(C)C)ccc2c1C(=O)OCc1c(Br)c(C)c(Br)c(OC(=O)C3(C)CC4CCC3C4)c1O2 (stereo partly shown) [Example B-69]	–	–	–	–	–
48	30	44	150	–	–	COc1c([C@@H](O)CC(C)C)ccc2c1C(=O)OCc1c(C)c(C)c(C)c(OC(=O)C3(C)CC4CCC3C4)c1O2 (stereo partly shown) [Example B-70]	–	–	–	–	–
–	52	–	–	32	26	COc1c([C@@H](O)CC(C)C)ccc2c1C(=O)OCc1cc(C)c(C3CC3)c(OC(=O)C3(C)C4CCC3CC4)c1O2 (stereo partly shown) [Example C-59]	–	–	–	–	–
54	59	55	60	–	–	COc1c([C@@H](O)CC(C)C)ccc2c1C(=O)OCc1c(Cl)c(C)c(Cl)c(OC(=O)C3(C)CC4CCC3C4)c1O2 (stereo partly shown) [Example B-81]	–	–	–	–	–
–	66	–	57	53	14	COc1c([C@@H](O)CC(C)C)ccc2c1C(=O)OCc1c(Cl)c(C)c(C3CC3)c(OC(=O)C3(C)C4CCC3CC4)c1O2 (stereo partly shown) [Example C-56]	–	–	–	–	–
–	–	–	30	–	–	COc1c([C@@H](O)CC(C)(C)C)ccc2c1C(=O)OCc1c(Cl)c(C)c(C)c(OC(=O)C3(C)C4CCC3CC4)c1O2 (stereo partly shown) [Example C-72]	–	–	–	68	–
–	75	–	58	50	20	CCc1c(C)c(Cl)c2c(c1OC(=O)C1(C)C3CCC1CC3)Oc1ccc([C@@H](O)CC(C)C)c(OC)c1C(=O)OC2 (stereo partly shown) [Example C-118]	–	–	–	–	–
–	83	–	32	65	48	COc1c([C@@H](O)CC(C)(C)C)ccc2c1C(=O)OCc1c(Cl)c(C)c(Br)c(OC(=O)C3(C)C4CCC3CC4)c1O2 (stereo partly shown) [Example C-63]	–	–	–	–	17
83	76	64	–	–	–	COc1c([C@@H](O)CC(C)C)ccc2c1C(=O)OCc1c(Cl)c(C)c(Br)c(OC(=O)[C@]3(C)CC4C=CC3C4)c1O2 (stereo partly shown) [Example C-31]	–	–	–	–	–
–	91	–	15	81	56	CCc1c(C)c(Cl)c2c(c1OC(=O)C1(C)C3CCC1CC3)Oc1ccc([C@@H](O)CC(C)(C)C)c(OC)c1C(=O)OC2 (stereo partly shown) [Example C-73]	–	–	–	56	–
31	28	35	100	–	–	COc1c([C@@H](O)CC(C)C)ccc2c1C(=O)OCc1c(Cl)c(C)c(Cl)c(OC(=O)C3(C)CCCCC3)c1O2 [Example B-84]	–	–	–	–	–
–	60	–	40	29	7	COCc1c(C)c(Cl)c2c(c1OC(=O)C1(C)C3CCC1CC3)Oc1ccc(C(O)CC(C)(C)C)c(OC)c1C(=O)OC2 (stereo not shown) [Example C-71]	–	–	–	–	–

Compound	inhibition at 30 mg/kg [1, 2] [%]	inhibition at 30 mg/kg [1, 3] [%]	inhibition at 30 mg/kg [1, 4] [%]	IC50 (CETP) [nM]	inhibition at 30 mg/kg [1, 8] [%]	inhibition at 30 mg/kg [1, 9] [%]	inhibition at 100 mg/kg [1, 5] [%]	inhibition at 100 mg/kg [1, 6] [%]	inhibition at 100 mg/kg [1, 7] [%]	% increase of HDL after 4 d (dose: 4 × 30 mg/kg) (HDL) [%]	% increase of HDL after 24 h (dose: 2 × 30 mg/kg) (HDL cholesterol) [%]
COc1c([C@@H](O)CC(C)C)ccc2c1C(=O)OCc1cc(C)cc(OC(=O)N3C4CCC3CC4)c1O2 [Example B-147]	–	–	–	200	–	–	76	54	33	–	–

Source: patent publication US20060247303A1, “7H-dibenzo[b,g][1,5]dioxocin-5-one derivatives and use thereof” (BAYER HEALTHCARE AG, priority 2002, published 2006)
